Test system: L. acidophilus NCFM
Experiment: Growth of L. acidophilus NCFM on plant glycosides as single carbon source (OD600)
Assay type: cell-based, Lactobacillus acidophilus
Details: for Growth (OD600 max class) of L. acidophilus NCFM: SDM + 1% (w/v) carbohydrate (0.5% esculin), 37° C., 30 hours, corrected to medium without carbohydrate; for OD600 max: single carbon source, 200 μl cultures, 96 microtitre plates, corrected for medium without carbon source
Description: For initial growth and gene expression studies, L. acidophilus NCFM was propagated three times in semi-defined medium (SDM) supplemented with either 1% or 0,5% (w/v) of the plant glycoside or carbohydrate (Table 1). For the RNA-seq analysis, cells were harvested by centrifugation (3,220×10 min, 25° C.) in the mid-exponential phase (OD600=0.6-0.8) and stored at −80° C. for subsequent RNA isolation. For the mass spectrometry metabolite analyses, 200 μt samples were taken at 0, 3, 6, 9, 12, and 24 hours of growth; cells were removed by centrifugation; and supernatants were stored at −80° C. for further analysis.
Phenotypic growth assays were performed using 1% (v/v) overnight cultures of L. acidophilus strains (Table 2) and other Lactobacillus species (Table 3) grown on SDM supplemented with 1% (w/v) glucose to inoculate 200 μL of SDM supplemented with 1% (w/v) of the examined carbohydrate (0.5% in the case of esculin) in 96-well microplate wells (Corning Costar, Corning, N.Y., USA) in duplicate or triplicate wells, respectively. The microplates were sealed with clear adhesive film, incubated at 37° C. in a Fluostar Optima microplate reader (BMG Labtech, Cary, N.C., USA), and the cell optical density (OD600) was monitored for 30 hours.
The growth of L. acidophilus NCFM was evaluated on twelve chemically diverse, nutritionally relevant and/or therapeutically active PGs 1; Table 1). FIG. 1A provides the structures and common sources of plant glycoside substrates described herein. The compounds that support growth of Lactobacillus acidophilus are in green. RI: β-D-Glcp; R2: Gentiobioside (β-D-Glcp-(1,6)-D-Glcp); R3: Rutinoside (α-L-Rhaf-(1,6)-D-Glcp). The graph in FIG. 1B depicts plant glycoside utilization analyzed by mass spectrometry and the growth as the maximum OD600. Due to the low solubility of polydatin, OD600 cannot be used as a growth metric and utilization of this compound is confirmed by the production of lactate as well as a high utilization level based on the metabolite analysis.

N#C[C@H](O[C@@H]1O[C@H](CO[C@@H]2O[C@H](CO)[C@@H](O)[C@H](O)[C@H]2O)[C@@H](O)[C@H](O)[C@H]1O)c1ccccc1 [Amygdalin]
Growth (OD600 max class) of L. acidophilus NCFM: + (“+” signifies 0.3 > OD600 max > 0.1.)
OD600 max (growth concentration 1% (w/v)): 0.3

O=c1ccc2cc(O[C@@H]3O[C@H](CO)[C@@H](O)[C@H](O)[C@H]3O)c(O)cc2o1 [Esculin]
Growth (OD600 max class) of L. acidophilus NCFM: ++ (“++” signifies 0.6 > OD600 max > 0.3.)
OD600 max (growth concentration 0.5% (w/v)): 0.4

OCc1ccccc1O[C@@H]1O[C@H](CO)[C@@H](O)[C@H](O)[C@H]1O [Salicin]
Growth (OD600 max class) of L. acidophilus NCFM: +++ (“+++” signifies OD600 max > 0.6.)
OD600 max (growth concentration 1% (w/v)): 0.8

Source: US20200222474A1, “COMPOSITIONS AND METHODS FOR INCREASING PHYTOCHEMICAL BIOAVAILABLITY AND BIOACTIVITY” (North Carolina State University, priority 2017, published 2020)
